Reference: patent US5705533A, “10-thio-substituted 1,8-dihydroxy-9 (10H) -anthracenone pharmaceuticals” (Teva Pharmaceutical Industries Ltd., priority 1995, dated 1998)
Where two headings read alike, the source gives them in different places.

What was measured:
[1] = test system: HaCaT cells; experiment: Antiproliferative Activity Assay, HaCaT cell growth; assay type: cell-based, human; settings: 48 h
Description: HaCaT cells, a rapidly multiplying human keratinocyte cell line, were grown in Dulbecco's modified Eagle medium (DMEM), No. 041-11965A, Gibco) supplemented with 10% fetal calf serum, penicillin (100U/ml), streptomycin (100 μg/ml) in a humidified incubator containing 8% CO2 at 37° C. Cells ([…] /1.1 ml suspension per well) were seeded on 24-wells-multidishes and grown in DMEM. After 24 hours growth the medium was replaced with fresh medium and the test compounds (0.1-5 μM) were added. […] Controls were performed with DMSO or with medium alone. Forty-eight hours after addition of the test compound to the culture, the medium was removed and each well was rinsed with 100 μL PBS. The cells were then incubated with sterile 0.5% trypsin, 0.2% EDTA in PBS for 20 minutes at 37° C. The detached cells from each well were suspended in DMEM and dispersed into single cells by gentle pipetting through an Eppendorf pipette, and cell growth was determined directly by counting the keratinocytes in a Neubauer counting chamber using phase contrast microscopy. Inhibition was calculated by comparison of the mean values of the test compound (N=3) with the control (N=6-8) activity: (1-test compound/control)×100.

[2] = biological target: T1, 5-LO (Bos taurus, UniProt F1MQ78); experiment: Bovine PMNL 5-Lipoxygenase Assay (inhibition of 5-HETE and LTB4 biosynthesis); assay type: cell-based; settings: for inhibition at 30 µM: PMNL, read-out: 5-LO percent inhibition
T1 construct: Polymorphonuclear leukocytes (PMNL) were prepared from sodium EDTA-anticoagulated bovine blood; endogenous in cells; host or cells: bovine polymorphonuclear leukocytes isolated from EDTA-anticoagulated blood (intact cells, A23187-stimulated)
T1 sequence (F1MQ78 1-674): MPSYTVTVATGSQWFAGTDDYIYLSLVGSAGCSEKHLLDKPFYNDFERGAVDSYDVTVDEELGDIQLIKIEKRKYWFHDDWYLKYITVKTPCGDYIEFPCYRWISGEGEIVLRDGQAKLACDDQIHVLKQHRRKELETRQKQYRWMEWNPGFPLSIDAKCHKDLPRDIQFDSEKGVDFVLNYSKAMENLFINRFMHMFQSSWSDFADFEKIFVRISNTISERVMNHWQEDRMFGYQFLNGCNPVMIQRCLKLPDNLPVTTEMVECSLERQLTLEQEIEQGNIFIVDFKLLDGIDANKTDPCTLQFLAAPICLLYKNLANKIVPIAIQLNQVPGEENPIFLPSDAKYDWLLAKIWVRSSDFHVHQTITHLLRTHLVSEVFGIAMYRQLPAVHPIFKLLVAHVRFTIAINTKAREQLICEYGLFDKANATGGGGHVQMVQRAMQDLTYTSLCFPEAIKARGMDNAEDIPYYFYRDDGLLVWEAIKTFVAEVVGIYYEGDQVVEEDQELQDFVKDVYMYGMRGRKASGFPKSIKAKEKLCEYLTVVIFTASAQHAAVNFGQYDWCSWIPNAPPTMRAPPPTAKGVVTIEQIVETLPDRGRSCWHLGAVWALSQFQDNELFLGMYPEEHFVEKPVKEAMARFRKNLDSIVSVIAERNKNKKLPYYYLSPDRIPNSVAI
Description: Polymorphonuclear leukocytes (PMNL) were prepared from sodium EDTA-anticoagulated bovine blood, essentially as described by Walstra, P. et al., "Leukotriene Formation by Bovine Polymorphonuclear Leukocytes", Biochim. Biophys. Acta, 795,499-503 (1984). Contaminating platelets were removed by repeated centrifugations at 100 g for 20 min. The purified PMN leukocytes were suspended at a concentration of 1×10^7 cells/ml in phosphate buffered saline (PBS, composed of 8.00 g NaCl, 0.20 g KCl, 1.00 g Na2 HPO4 .cndot.2H2 O, 0.15 g NaH2 PO4 .cndot.H2 O, 0.20 g KH2 PO4, adjusted to pH 7.4 with 3 N NH3 in a final volume of 1000 ml of double distilled H2 O). Cell counts were conducted with a Sysmex microcellcounter CC-130. Preincubation was performed with 2.4 ml of the suspension and 10 μl of a DMSO stock solution of each test compound at the desired concentration in PBS or vehicle control (DMSO at final concentration of 0.4%) for 15 min at 37° C. in a shaking water bath. The syntheses of LTB 4 and 5-HETE were stimulated by the addition of CaCl2 and Ca-ionophore A23187 (final concentrations 2 mM and 20 μM, respectively), and the incubation was conducted for 10 min at 37° C. 5-LO product formation was terminated by the addition of 3.0 ml of methanol/acetonitrile (1+1) containing NDGA as radical scavenger (final concentration 0.01 mM) and prostaglandin B2 PG B2 as chromatographic marker (final concentration 0.3 μM). The incubation mixture was kept in an ice bath for 20 min and then centrifuged at 4000 g for 5 min at 0° C. The supernatant was diluted with 5 ml of water and passed through a prewashed (10 ml of methanol and 5 ml of water, sequentially) octadecylsilane reversed phase cartridge (Baker). The eicosanoids were eluted with 3 ml of methanol, diluted with 3 ml of water and subjected to reversed phase high performance liquid chrometography (HPLC) analysis, performed on a 250×4 mm column packed with Nucleosil C18 (7 μm particles; Bischoff, Leonberg, Germany). The isocratic elution conditions of LTB4 were tetrahydrofuran (THF)/methanol/water/acetic acid (25+30+45+0.1), adjusted to pH 5.5 with concentrated NH3, at a flow rate of 0.9 ml/min (Kontron 420 pump), monitored at 280 nm with a Kontron 735 LC UV detector, whereas 5-HETE was monitored at 232 nm using methanol/water/acetic acid (77+23+0.1), pH 5.5,flow rate 1.0ml/min. Data were recorded on a MacLab data acquisition system (WissTech, Germany) and analysis was performed with the application Peaks on an Apple Macintosh Quadra 700 computer. Integrated areas of the peaks were compared to the PGB2 internal standard and to external standards of test samples. Molar absorption coefficients of Samuelsson et al., Borgeat, P. and B. Samuelsson, "Arachidonic Acid Metabolism in Polymorphonuclear Leukocytes: Effects of Ionophore A23187", Proc. Nat. Acad. Sci. USA, 76, 2148-2152 (1979), were used for calculations. Inhibition was calculated by comparison of the mean values of test compound (n=3) with control (n=6-8) activity: (1-test compound/control)×100.
By the above method, the anthracenone derivatives of the invention were evaluated for their ability to inhibit the production of LTB4 and 5-HETE in isolated bovine polymorphonuclear leucocytes (PMNL), see Walstra, P. et al., "Leukotriene Formation by Bovine Polymorphonuclear Leukocytes", Biochim. Biophys. Acta, 795,499-503 (1984); Dannhardt, G. and also M. Lehr, "In-Vitro Evaluation of 5-Lipoxygenase and Cyclo-Oxygenase Inhibitors Using Bovine Neutrophils and Platelets and HPLC", J. Pharm. Pharmacol., 44, 419-424 (1992). LTB4 and 5-HETE concentrations were measured by reversed-phase HPLC with UV detection.

[3] = therapeutic application; cited from earlier work
[4] = test system: LTB4 production in bovine neutrophils; settings: read-out: Inhibition of production of LTB4, IC50; cited from earlier work
[5] = Unna 1916; cited from earlier work
[6] = test system: LTB4 production in human neutrophils; settings: depending on cell density, read-out: Inhibition of production of LTB4, IC50; cited from earlier work
[7] = Homo sapiens, HaCaT, HaCaT cells, N = 3, read-out: AA IC50 (antiproliferative activity)
[8] = HaCaT cells, N = 3, read-out: AA IC50 (antiproliferative activity)

SMILES	IC50 [1, 7] [nM]	inhibition at 30 µM [2] [%]	IC50 ([2]; read-out: 5-LO IC50) [nM]	other results
CCOC(=O)CCSC1c2cccc(O)c2C(=O)c2c(O)cccc21 [Compound 3d]	1600	30	–	–
Nc1ccccc1SC1c2cccc(O)c2C(=O)c2c(O)cccc21 [Compound 3l]	100	–	2400	IC50 ([1]; HaCaT cells, N = 3, listed as 31, read-out: AA IC50 (antiproliferative activity)): ≤ 100 nM
COc1cccc(SC2c3cccc(O)c3C(=O)c3c(O)cccc32)c1 [Compound 3j]	1800	100	–	–
O=C1c2c(O)cccc2C(Sc2ccccc2S)c2cccc(O)c21 [Compound 4c]	100	–	–	IC50 [1, 8]: ≤ 100 nM
COc1ccccc1SC1c2cccc(O)c2C(=O)c2c(O)cccc21 [Compound 3i]	4250	–	6300	–
Nc1ccc(SC2c3cccc(O)c3C(=O)c3c(O)cccc32)cc1 [Compound 3n]	900	–	7500	–
O=C1c2c(O)cccc2C(Sc2ccccc2O)c2cccc(O)c21 [Compound 4a]	1750	–	5000	–
CCCCOC(=O)CCSC1c2cccc(O)c2C(=O)c2c(O)cccc21 [Compound 3e]	2300	62	–	–
CCCCOC(=O)CSC1c2cccc(O)c2C(=O)c2c(O)cccc21 [Compound 3a]	2100	8	–	–
CCOC(=O)CSC1c2cccc(O)c2C(=O)c2c(O)cccc21 [3-B, reference compound]	4520	42	–	–
COC(=O)CCSC1c2cccc(O)c2C(=O)c2c(O)cccc21 [Compound 3c]	1100	–	15000	–
O=C1c2c(O)cccc2C(SCCCS)c2cccc(O)c21 [Compound 3f]	770	14	–	–
COC(=O)CSC1c2cccc(O)c2C(=O)c2c(O)cccc21 [3-A, reference compound]	190000	–	–	IC50 [2]: 13000 nM
O=C1c2c(O)cccc2C(SCc2ccccc2)c2cccc(O)c21 [4A, reference compound]	–	46	–	IC50 ([1]; Homo sapiens, HaCaT, read-out: AA IC50 (antiproliferative activity)): 1400 nM
Nc1cccc(SC2c3cccc(O)c3C(=O)c3c(O)cccc32)c1 [Compound 3m]	1900	–	2400	–
O=C1c2c(O)cccc2C(Sc2cccc(S)c2)c2cccc(O)c21 [Compound 4d]	> 5000	–	–	–
O=C1c2c(O)cccc2C(Sc2ccc(O)cc2)c2cccc(O)c21 [Compound 4b, 1,8-Dihydroxy-10-[(4-hydroxyphenyl)thio]-9(10H)-anthracenone]	< 100	–	2400	IC50 [1, 8]: ≤ 100 nM
O=C1c2c(O)cccc2Cc2cccc(O)c21 [anthralin, 1,8-dihydroxy-9(10H)-anthracenone]	600	–	37000	Irritation / side effects [3]: non-affected skin surrounding a psoriatic lesion to which anthralin is applied frequently becomes irritated; IC50 [4]: 37000 nM; Therapeutic effect in psoriasis [5]: effective in the treatment of psoriasis; IC50 [6]: 7000 to 74000 nM
CCCC(=O)C1c2cccc(O)c2C(=O)c2c(O)cccc21 [butantrone, 10-Butyryl-Dithranol]	–	–	–	Irritation / side effects [3]: elicits a widespread and delayed irritation effect in many patients
O=C1c2ccccc2Cc2cccc(O)c21 [1-hydroxy-9(10H)-anthracenone]	–	–	–	Therapeutic effect in psoriasis [5]: effective in the treatment of psoriasis
CC(SC1c2cccc(O)c2C(=O)c2c(O)cccc21)C(=O)O (centres unmarked) [Compound 3b]	200	28	–	–
COc1ccc(SC2c3cccc(O)c3C(=O)c3c(O)cccc32)cc1 [Compound 3k]	1690	–	3200	–
